Data set [1] relates to HTB-54 cells (lung adenocarcinoma). Put plainly: MTT cell viability assay, HTB-54. The format is cell-based, human. As to conditions: Homo sapiens, 48 h, MTT, read-out: cell viability, percentage of live cells; for viability at 10 µM: HTB-54, 10 µM; for viability at 50 µM: HTB-54, 50 µM. The method, then:
(§1) Cell lines were purchased from the American Type Culture Collection (ATCC). MCF-7, HTB-54, BEAS-2B and 184B5 cell lines were grown in RPMI 1640 medium (Gibco) supplemented with 10% fetal bovine serum (FBS; Gibco), 100 units/mL penicillin, and […] streptomycin (Gibco). HT-29 and HCT-116 cell lines was cultured in McCoy’s 5A (Gibco), 10% FBS, 100 units/mL penicillin, and 100 μg/mL streptomycin. Cells were maintained at 37 °C and 5% CO2. Culture medium was replaced every three days.
(§2) A cell viability assay of each compound was carried out using an MTT assay. Each selenourea was dissolved in dimethyl sulfoxide (DMSO) at a concentration of 0.01 M. Serial dilutions were prepared with non-supplemented culture medium. Cytotoxic activity of each selenourea was determined at two different concentrations (10 and 50 µM) in MCF-7, HTB-54, and HT-29 cells. In addition, selected compounds were tested at seven different concentrations (0.1, 1, 5, 10, 25, 50, 100 µM) on MCF-7, HT-29, HCT-116, HTB-54, 184B5, and BEAS-2B cells. The number of passages before defrosting the cells was 3, and they were kept under culture up to a maximum of 15.
(§3) Briefly, 1 × 10^4 cells/well were grown in 96-well plates for 24 h. Then, these cells were incubated with either DMSO (negative control) at 5 µM or a different concentration of each tested selenourea for 48 h. A volume of 20 µL of MTT was added 150 min before the termination point to measure cellular viability. After this time, culture medium was removed. The resultant formazan crystals were dissolved in 50 µL of DMSO, and absorbance was measured at 570 nm. Results are expressed as IC50, the half maximal inhibitory concentration. This value was calculated using GraphPad Prism 7 software by nonlinear curve fitting. Furthermore, the selectivity index (SI) was calculated as the ratio of the IC50 values determined for the non-malignant and the tumoral cells (IC50 (184B5)/IC50 (MCF-7) or (IC50 (BEAS-2B)/IC50 (HTB-54). Data were obtained from at least three independent experiments performed in triplicates.
(§4) The cytotoxic effects of synthesized compounds were evaluated against three human cancer cell lines: breast adenocarcinoma (MCF-7), lung adenocarcinoma (HTB-54), and colon carcinoma (HT-29), using a 3-[4,5-dimethylthiazol-2-yl]-2,5-diphenyltetrazolium bromide (MTT) assay. Firstly, the compounds were screened at two doses (50 and 10 µM) and after 48 h of treatment. The results are summarized in Figure 4 and are presented as percentages of growth inhibition related to control.
(In general: Formazan colour is commonly taken as a measure of viable cells.)

Data set [2] deals with MCF-7 cells (breast adenocarcinoma). The experiment in a line: MTT cell viability assay, MCF-7. The format is cell-based, human. As to conditions: Homo sapiens, MCF7, 48 h, MTT, read-out: cell viability, percentage of live cells; for viability at 10 µM: MCF-7, 10 µM; for viability at 50 µM: MCF-7, 50 µM. The method, then:
as §1, §2, §3, §4

In data set [3] the test system is HT-29 cells (colon carcinoma). Put plainly: MTT cell viability assay, HT-29. The format is cell-based. The conditions noted are these: Homo sapiens, 48 h, MTT, read-out: cell viability, percentage of live cells; for viability at 10 µM: HT-29, 10 µM; for viability at 50 µM: HT-29, 50 µM. The method, then:
as §1, §2, §3, §4

Data set [4] in a line: DPPH radical scavenging assay. The conditions noted are these: for DPPH radical scavenging kinetics: 0.03 mg/mL, time-point 0 min. The method, then: (§5) From all the methods available for the prediction of the antioxidant properties, DPPH^● and ABTS^●+ assays were chosen according to their simplicity, accessibility, and effectiveness for a fast prediction of radical scavenging activities in vitro. The radical scavenging capacity of the novel selenoureas was determined by DPPH^● and ABTS^●^+ assays. Measurements were recorded on a BioTeck PowerWave XS spectrophotometer (BioTeck Instruments, Winooski (VT), USA) and the data were collected using KCJunior software (BioTeck Instruments, Winooski (VT), USA).
A DPPH assay was performed, as described by Svinyarov. Stock solutions of 1 mg/mL were initially prepared for each selenourea in methanol and this solution was used for the preparation of the different concentrations employed in the assay. Ascorbic acid (Asc) was used as positive control due to the literature reports that this derivative is a potent antioxidant and radical scavenger. A volume of 100 µL from a previously prepared stock solution (preserved in dark and daily prepared) of DPPH (100 µM) in methanol were added to 100 µL of the methanolic selenoureas solutions prepared previously, and the antioxidant activity these compounds was assessed by its ability to decolorize DPPH● radical (purple color in methanol) to DPPHH (colorless). Thus, radical scavenging activity was estimated by the decrease in the absorbance at 517 nm. Determinations were recorded at different time-points. All the measurements were carried out in triplicate. Results are expressed as the percentage of the radicals scavenged, calculated using the following formula:(1) % DPPH radical scavenging=Acontrol − Asample/Acontrol × 100 where Acontrol refers to the absorbance of the negative control and Asample refers to the absorbance of the tested compounds. Results are expressed as percentage of DPPH radical scavenging ± SD.
In order to determine the radical scavenging of these newly synthesized selenourea derivatives, the DPPH assay was firstly employed. Measurements were performed at four different concentrations ranging from 0.0003 to 0.03 mg/mL, and collected at time-points between 0 min and 120 min (Figures S81–S100). Results are presented as the percentage of inhibition for DPPH radical scavenging activity.
For orientation: DPPH is a stable violet radical that fades when it is reduced.

The nature of data set [5]: ABTS radical scavenging assay. The conditions noted are these: 0.03 mg/mL. The procedure:
as §5
As well as DPPH, ABTS radical scavenging assay is a colorimetric method. ABTS (2,2′-azino-bis(3-ethylbenzothiazoline-6-sulfonic acid) was dissolved in deionized water at 1 mg/mL and oxidized to ABTS^●+ with potassium persulfate (2.45 mM final concentration). This oxidation process is not instantaneous, and the reaction mixture was kept in the dark overnight at room temperature. After ABTS^●+ radical was generated, the ABTS^●+ solution was diluted with 50% ethanol until an absorbance of 0.70 ± 0.02 at 734 nm for measurements was achieved. Stock solution of 1 mg/mL in absolute ethanol was prepared for each selenourea, and different dilutions were prepared to reach the final concentration, when 20 µL of this solution were added to 180 µL of the diluted ABTS^●+. The absorbance at 734 nm was recorded using 50% ethanol as blank. Trolox and Asc were used as positive controls. All determinations were carried out in triplicate. Same time intervals as in the DPPH assay were also measured. The ability to scavenge ABTS^●+ was calculated using the following formula:(2) % ABTS radical scavenging=Acontrol − Asample/Acontrol × 100 where Acontrol refers to the absorbance of the negative control and Asample refers to the absorbance of the tested compounds. The results are expressed as percentage of ABTS radical scavenging ± SD.
In order to confirm the antioxidant activity of the selenoureas, we performed an additional ABTS (2,2′-azino-bis(3-ethylbenzothiazoline-6-sulfonic acid) radical scavenging assay. Following the results obtained in the DPPH assay, this experiment was performed at 0.03 and 0.003 mg/mL. Measurements were recorded after 0′, 6′ and 60′ of incubation with ABTS. For comparison purposes, Trolox and ascorbic acid were used as references. The remarkable results are summarized in Figure 3.

We go through 13 compounds from article PMC8156206, “Novel N,N′-Disubstituted Selenoureas as Potential Antioxidant and Cytotoxic Agents” (Antioxidants, 2021).

The term melting point denotes the temperature of the solid-liquid transition. In general, viability refers to a per cent measure of how many cells are alive, often set against a control.

The compound `[Se]=C(NCc1ccco1)Nc1ccccc1` [Compound 1a] showed a melting point of 109 °C. Further, in data set [1], the viability at 10 µM was determined as 63.5% and the viability at 50 µM came to 20.5%. In data set [2], the viability at 10 µM worked out at 75.7% and the viability at 50 µM turned out to be 32.3%. In addition, in data set [3], the viability at 10 µM came to 70.4% and the viability at 50 µM is 44.6%.
Regarding `Cc1ccc(NC(=[Se])NCc2ccco2)cc1` [Compound 1b], the viability at 10 µM was found to be 52.1% in data set [1], 64.8% in data set [2] and 66.2% in data set [3]. Further, the viability at 50 µM in data set [1] stood at 21.6%; in data set [2], 12.4%; in data set [3], 43.1%.
Compound `COc1ccc(NC(=[Se])NCc2ccco2)cc1` [Compound 1c] had a melting point of 128 °C. In data set [1], the viability at 10 µM was 55.7% and the viability at 50 µM was determined as 28.8%. Further, in data set [2], the viability at 10 µM is 64% and the viability at 50 µM came to 21.5%. Besides, in data set [3], the viability at 10 µM came to 70.5% and the viability at 50 µM is 39.1%.
On to `Cc1ccc(NC(=[Se])NCc2nccs2)cc1` [Compound 2b], for which the melting point amounted to 154 °C. Moreover, in data set [1], the viability at 10 µM stood at 53.1% and the viability at 50 µM turned out to be 18.1%. In data set [2], the viability at 10 µM stood at 65.5% and the viability at 50 µM came to 16.8%. Further, in data set [3], the viability at 10 µM turned out to be 88.3% and the viability at 50 µM was determined as 49.6%. Besides, in data set [4] (at lower concentrations), the “DPPH radical scavenging capacity compared with ascorbic acid” value is recorded as “greater radical scavenging capacity than ascorbic acid”.
For the compound `Cc1ccc(NC(=[Se])Nc2ccc3oc(=O)ccc3c2)cc1` [Compound 3b], the melting point came out at 145 °C. Further, in data set [1], the viability at 10 µM was found to be 62.9% and the viability at 50 µM turned out to be 27.3%. In data set [2], the viability at 10 µM was determined as 73.8% and the viability at 50 µM came out at 29.2%. In data set [3], the viability at 10 µM came out at 57.1% and the viability at 50 µM worked out at 46.1%. In addition, the “DPPH radical scavenging kinetics” value in data set [4] was “reaching the maximum activity at time-point 0′”.
As to `COc1ccc(NC(=[Se])Nc2ccc3oc(=O)ccc3c2)cc1` [Compound 3c], the melting point stood at 159 °C. In data set [1], the viability at 10 µM is 61.6% and the viability at 50 µM was 9.7%. For the same compound, in data set [2], the viability at 10 µM worked out at 73.9% and the viability at 50 µM came to 17.4%. In addition, in data set [3], the viability at 10 µM was found to be 58.2% and the viability at 50 µM amounted to 34.3%. For the same compound, the “DPPH radical scavenging kinetics” value in data set [4] is “reaching the maximum activity at time-point 0′”.
Regarding `O=c1ccc2cc(NC(=[Se])Nc3ccc(Cl)cc3)ccc2o1` [Compound 3d], the melting point was 156 °C. Moreover, in data set [1], the viability at 10 µM was 70.1% and the viability at 50 µM turned out to be 14%. Further, in data set [2], the viability at 10 µM was found to be 69.7% and the viability at 50 µM came out at 28.6%. In data set [3], the viability at 10 µM was found to be 59.1% and the viability at 50 µM is 35.7%. In addition, in data set [4], the “DPPH radical scavenging kinetics” value is “reaching the maximum activity at time-point 0′”.
As to `CCCCNC(=[Se])Nc1ccc(Cl)cc1` [Compound 4d], the melting point came out at 116 °C. In data set [1], the viability at 10 µM was found to be 58.1% and the viability at 50 µM came out at 38%. For the same compound, in data set [2], the viability at 10 µM was 50.3% and the viability at 50 µM was 34.1%. Further, in data set [3], the viability at 10 µM was found to be 64.4% and the viability at 50 µM turned out to be 46%.
In the case of `CCCCNC(=[Se])Nc1ccc(C#N)cc1` [Compound 4e], the melting point stood at 145 °C. Further, in data set [1], the viability at 10 µM was 74.6% and the viability at 50 µM was 29.7%. In data set [2], the viability at 10 µM stood at 70.7% and the viability at 50 µM came to 39%. In data set [3], the viability at 10 µM was found to be 60.7% and the viability at 50 µM was 46.3%. Also, in data set [4], the “DPPH radical scavenging kinetics” value is “reaching the maximum activity at time-point 0′”.
Compound `CCCCCCNC(=[Se])Nc1ccc(OC)cc1` [Compound 5c] displayed a melting point of 97 °C. Further, in data set [1], the viability at 10 µM is 70.4% and the viability at 50 µM stood at 10.7%. Further, in data set [2], the viability at 10 µM was 60.1% and the viability at 50 µM is 8.1%. Moreover, in data set [3], the viability at 10 µM turned out to be 62.6% and the viability at 50 µM stood at 31.1%.
Consider `CCCCCCNC(=[Se])Nc1ccc(C#N)cc1` [Compound 5e, N-hexyl-N´-(4-cyanophenyl)selenourea], for which the melting point worked out at 125 °C. Moreover, in data set [1], the viability at 10 µM was 80.2% and the viability at 50 µM amounted to 23.3%. In data set [2], the viability at 10 µM came out at 68.5% and the viability at 50 µM was found to be 14.7%. For the same compound, in data set [3], the viability at 10 µM is 59.1% and the viability at 50 µM stood at 40.4%. The “DPPH radical scavenging kinetics” value in data set [4] is reported as “reaching the maximum activity at time-point 0′”.
With `Cc1c(C)c2c(c(C)c1O)CCC(C)(C(=O)O)O2` (stereo not drawn) [Trolox, reference compound], the “ABTS radical scavenging kinetics” value in data set [5] is recorded as “reached the maximal ABTS radical scavenging activity quickly”.
On the same count and under the same terms, the value for `O=C1O[C@H]([C@@H](O)CO)C(O)=C1O` [ascorbic acid, reference compound] was “reached the maximal ABTS radical scavenging activity quickly”.
